Measured values: US5922756A, “Method of inhibiting nitric oxide synthase” (priority 1998, dated 1999)
Like-named read-outs stand apart in the source and are kept apart here.

Assays:
[1] = target: T1, Murine iNOS (Mus musculus, UniProt P29477); test: Citrulline assay for iNOS enzyme activity ([3H]arginine to [3H]citrulline); format: biochemical; settings: for remaining activity at 800 µM: read-out: citrulline formation (% of control)
T1 construct: purchased Cayman
Experimental: Murine iNOS was extracted from the RAW 264.7 murine macrophages (from the American Type Culture Collection). The cells were stimulated with 20 units/mL cf IFNγ and 0.5 μg/mL LPS, incubated for 4 hr, and then harvested. The washed cells were lysed in 50 mM MOPS buffer (pH 7.0) which contained 1 mM EGTA, 100 mM NaCl, 0.1% 3-[(3-cholamidopropl)dimethylammonio]-2-hydroxy-1-propanesulfonate (CHAPSO), 0.2 mM phenylmethylsulfonyl fluoride, […], and 1 mM leupeptin. After passing through Sephadex G-100 (Pharmacia) to remove arginine, NADPH, and unbound tetrahydrobiopterin, the supernatant was concentrated by ultrafiltration using Centricon 30 microconcentrators (Amicon) (Forstermann et al. 1994; Wolff and Gribin 1994). Murine iNOS, 100,000 g fraction, was also purchased from Cayman.
(§1) Enzyme inhibition studies for iNOS were conducted in 50 mM HEPES buffer (pH 7.4) containing 1 mM calcium chloride, 1 mM magnesium acetate and […]. [^3 H]arginine (New England Nuclear), tetrahydrobiopterin (Biomol), and EGCG were added at the indicated concentrations. Reactions were terminated by the addition of AG 50WX8 resin (Bio-Rad) in HEPES-EDTA buffer (pH 5.5). Enzyme activity was measured by monitoring the conversion of [^3 H]arginine to [^3 H]citrulline (Hevel and Marletta 1994). Reactions were allowed to occur at 37° C. for 10-20 min since time-course analyses had shown that the reaction was linear under these conditions. Background was determined by the level of radioactivity in a reaction mixture from which iNOS was omitted. This amount was subtracted from the level detected in the experimental samples. Enzyme activity, i.e. the amount of citrulline formed, was deduced from the specific activity of the [^3 H]arginine.
Purification of tea catechin polyphenols was performed according to Xie et al. (1993). Enzyme preparation and assay were followed as described in the Methods section of Example 2.

[2] = tested on: iNOS mRNA expression; test: iNOS gene expression by relative RT-PCR in LPS- and IFNγ-activated mouse peritoneal cells; format: cell-based; settings: 4 hr after LPS + IFNγ stimulation, read-out: iNOS mRNA expression reduced to (% of control, iNOS/GAPDH ratio)
Experimental: (§2) Non-elicited peritoneal exudate cells were obtained from BALB/c mice (Jackson Laboratories) and were cultured at 10^6 /mL as described by Chan et al. (1995). They were stimulated by the addition of 0.01 μg/mL LPS from Salmonella typhosa (Difco Laboratories) and 10 units/mL of IFNγ. At 4 hr after stimulation, total RNA was isolated with a Purescript RNA isolation kit (Gentra). RT-PCR was performed to determine the level of iNOS gene expression. From each sample, 300 ng of RNA was reverse-transcribed using 100 units MMLV reverse transcriptase, 20 units RNase inhibitor, 0.6 mM dNTP, and 0.4 mM Oligo(dT16) (Promega). Then PCR analyses were performed on the aliquots of the cDNA preparations for detecting iNOS and glyceraldehyse 3-phosphate dehydrogenase (GAPDH) gene expression. The reactions occurred in a 50 μL volume, for 23 cycles, with 10 mM Tris-HCl, pH 8.3, 50 mM KCl, 1.5 mM MgCl2, 0.3 mM dNTP, 2.0 units of Taq DNA polymerase, and 50 pmol of 5' and 3' primers. Murine iNOS and GAPDH 5' and 3' primers were purchased from Clontech and used according to manufactures protocols. The products were then separated on 1.6% agarose gel, stained with ethidium bromide, and the intensity of the bands was determined by scanning (Siebert and Kellogg 1995).

[3] = tested on: NO production; settings: LPS- and IFNγ-induced mouse peritoneal cells; Chan et al. 1995; cited from earlier work
[4] = target: T2, neuronal nitric oxide synthase (nNOS) (Mus musculus, UniProt Q9Z0J4); test: Citrulline assay for neuronal NOS enzyme activity (mouse brain 100,000 g fraction); format: biochemical; settings: 0.135 μM arginine, 125 μM tetrahydrobiopterin, read-out: nNOS citrulline formation inhibited by (% compared with control)
T2 construct: fresh brains from BALB/c mice were homogenized; from tissue; host or cells: brain of BALB/c mice, 100,000 g fraction passed through Sephadex G-100
Experimental: as §1
Purification of EGCG was performed according to Xie et al. (1993). Neuronal NOS sample preparation and enzyme activity assay were described in the Methods section of Example 2, with the following modifications. For nNOS, fresh brains from BALB/c mice were homogenized in a 5-fold volume of 50 mM Tris-HCl (pH 7.5) that contained 1 mM EDTA, 5 mM 2-mercaptoethanol and then were centrifuged at 100,000 g for 1 hr, and then the sample was passed through the Sephadex G-100 column. For the nNOS enzyme assay, 5 μM flavin mononucleotide, 5 μM flavin adenine dinucleotide, 10 μg/mL calmodulin (Calbiochem) and 1.25 mM DTT were incorporated in the reaction mixture.

[5] = tested on: GAPDH mRNA expression; test: GAPDH (housekeeping gene) mRNA expression by RT-PCR in activated mouse peritoneal cells; format: cell-based; settings: EGCG 1-10 μM, housekeeping gene control
Experimental: as §2

[6] = 800 μM compound, 0.270 μM arginine, 125 μM tetrahydrobiopterin, 126 pmol/min iNOS
[7] = read-out: citrulline formation inhibited to (% of control)

remaining activity at 800 µM [1, 6] [%] | SMILES | mrna remaining at 1 µM ([2]; 1 μM EGCG) [%] | mrna remaining at 3 µM ([2]; 3 μM EGCG) [%] | mrna remaining at 5 µM ([2]; 5 μM EGCG) [%] | mrna remaining at 10 µM ([2]; 10 μM EGCG) [%] | NO production measured by nitrite accumulation in the culture medium [3] | EC50 [1] [µM] | Ki [1] [µM] | pattern of inhibition with respect to substrate arginine (Dixon plot) ([1]; 100-600 μM EGCG, 0.068-0.270 μM arginine) | pattern of inhibition with respect to cofactor tetrahydrobiopterin (Dixon plot) ([1]; 100-600 μM EGCG, 12-125 μM tetrahydrobiopterin) | remaining activity at 800 µM [1] [%] | inhibition at 50 µM [1, 7] [%] | inhibition at 250 µM [1, 7] [%] | inhibition at 500 µM [1, 7] [%] | inhibition at 750 µM [1, 7] [%] | inhibition at 200 µM ([4]; 200 μM EGCG) [%] | inhibition at 400 µM ([4]; 400 μM EGCG) [%] | inhibition at 600 µM ([4]; 600 μM EGCG) [%] | reduction in mRNA expression of GAPDH [5]
68 | O=C(O[C@@H]1Cc2c(O)cc(O)cc2O[C@@H]1c1ccc(O)c(O)c1)c1cc(O)c(O)c(O)c1 [ECG, epicatechin-gallate] | – | – | – | – | – | – | – | – | – | – | – | – | – | – | – | – | – | –
96 | Oc1cc(O)c2c(c1)O[C@H](c1cc(O)c(O)c(O)c1)[C@H](O)C2 [EGC, epigallocatechin] | – | – | – | – | – | – | – | – | – | – | – | – | – | – | – | – | – | –
– | O=C(O[C@@H]1Cc2c(O)cc(O)cc2O[C@@H]1c1cc(O)c(O)c(O)c1)c1cc(O)c(O)c(O)c1 [EGCG, Epigallocatechin-3-gallate] | 82 | 74 | 41 | 14 | reduces NO production | 150 | 130 | competitive pattern of inhibition | competitive manner | 62 | 85 | 40 | 27 | 14 | 79 | 51 | 56 | not observed
